{"source": "patent US8084465B2", "about": "“Derivatives of pryidone and use thereof” (Shanghai Genomics, Inc., priority 2003, dated 2011)", "key": {"fibroblast": {"system": "fibroblast", "test": "MTT assay, proliferation of fibroblast cultured in vitro", "format": "cell-based", "method": "The inhibitory effect of F351 on the proliferation of fibroblast cultured in vitro was tested using the following method. F351 was dissolved in 0.5% DMSO. The fibroblast was treated with F351 of different amount (FIG. 1 and FIG. 2) for 5 days. The agent was refreshed once every 48 hrs. Pirfenidone was used in parallel experiments in order to compare the effects of these two agents.\nMTT assay: […] cell suspension was added into each well of a 96-well plate, 4 parallel wells per group. The concentration of the agent and the culture time remained unchanged. Then 10 μL 5 g/L MTT (3-(4,5-dimethylthiazol-2-yl)-2,5-diphenyltetrazolium bromide) was added to each well for another 4 hrs of culture. 100 uL DMSO was added to each well. Gently vortex to make a uniform mixture. After about 10 mins, OD values at 570 nm and 630 nm were measured by an enzyme linked immune detector (BIO RAD 550). The cell viability rate was calculated in accordance with the following formula: Viability rate=[(experimental well OD570−experimental well OD630)/(control well OD570−control well OD630)]×100% Inhibition rate (or proliferation rate)=100%−viability rate"}, "[1]": {"system": "liver fibrosis model induced by CCl4", "test": "Mortality of rats in the CCl4 liver fibrosis model", "format": "in vivo", "conditions": "250 mg/Kg once per day", "method": "(§1) (a) Generating a carbon tetrachloride model (injected intraperitoneally with 40% CCl4 mixed with oil, 0.4 ml/100 g, twice per week, for 4 continuous weeks) and a dimethyl nitrosamine liver fibrosis model (injected intraperitoneally with 1% DMN, 10 mg/Kg, twice per week, for 8 continuous weeks).\n(§2) (b) The animals of these two models were intragastrically administered with F351 from the 0 day of the model establishment, with the dose at 250 mg/Kg, once per day, for 4 or 8 continuous weeks.\n(§3) The rat liver fibrosis models established by induction with CCl4 and DMN were treated with F351 in the same manner in Example 3. The body weight and mortality of the rates were observed."}, "[2]": {"system": "liver fibrosis model induced by DMN", "test": "Mortality of rats in the DMN liver fibrosis model", "format": "in vivo, rat", "method": "as §1, §2, §3"}, "[3]": {"system": "rat with liver fibrosis induced by CCl4", "test": "Serum transaminase (ALT) level in the CCl4 liver fibrosis model", "format": "in vivo", "conditions": "CCl4 model + F351, week 4; CCl4 model group 52±17.15, control group 27±5.09; P<0.05", "method": "as §1, §2\n(§4) The rat liver fibrosis models established by induction with CCl4 and DMN were treated with F351 in the same manner in Example 3. The serum of the rats was extracted and the level of the serum transaminase was measured."}, "[4]": {"system": "rat liver fibrosis model induced by DMN (dimethyl nitrosamine)", "test": "Rat liver fibrosis model induced by DMN, liver pathology", "format": "in vivo", "method": "(§5) A rat liver fibrosis model was established by induction with CCl4 and DMN (dimethyl nitrosamine)) respectively, and treated with F351 for 4 weeks, 8 weeks. The livers of the animal were harvested to observe the pathologic results. The method was as follows:\nas §1, §2"}, "[5]": {"system": "rat liver fibrosis model induced by CCl4", "test": "Rat liver fibrosis model induced by CCl4, liver pathology", "format": "in vivo", "conditions": "4 weeks, 250 mg/Kg intragastrically once per day, model group S4-S6, P=0.001", "method": "as §5, §1, §2"}, "[6]": {"system": "rat with liver fibrosis induced by DMN", "test": "Serum transaminase (ALT) level in the DMN liver fibrosis model", "format": "in vivo", "conditions": "DMN model + F351, week 4; DMN model group 74±18.25, control group 27±5.09; P<0.05", "method": "as §1, §2, §4"}}}
{"smiles": "Cc1ccc(=O)n(-c2ccc(O)cc2)c1", "note": "[F351, 5-methyl-1-(4-hydroxylphenyl)-2-(1H)-pyridone]", "values": [{"measurement": "activity for inhibiting the fibroblast viability", "setting": "fibroblast; FIG. 2, versus Pirfenidone control", "value": "higher than that of the Pirfenidone control"}, {"measurement": "inhibitory effect on the fibroblast", "setting": "fibroblast; MTT assay, treated for 5 days, compared with Pirfenidone in parallel, FIG. 1 and FIG. 2", "value": "more significant than that of Pirfenidone"}, {"measurement": "mortality of the rats", "setting": "[1]", "value": "did not increase the mortality"}, {"measurement": "rats survived", "setting": "[2]; week 4, 250 mg/Kg once per day, control group 7 of 25 rats survived", "value": 24}, {"measurement": "rats survived", "setting": "[2]; week 8, 250 mg/Kg once per day, control group 2 of 25 rats survived", "value": 18}, {"measurement": "ALT serum level", "setting": "[3]", "value": "45±17.68"}, {"measurement": "liver lesion (hepatocyte necrosis, hemorrhage, collagen deposition, fibrosis)", "setting": "[4]; week 4, 250 mg/Kg intragastrically once per day, versus model group, P<0.001", "value": "significantly reduced"}, {"measurement": "fibrosis around the sinus (pathologic results)", "setting": "[4]; week 8, 250 mg/Kg intragastrically once per day, versus control group", "value": "obviously better than the control group"}, {"measurement": "pathologic changes (fibrosis dimension around the central veins and the sinus)", "setting": "[5]", "value": "obviously reduced"}, {"measurement": "ALT serum level", "setting": "[6]", "value": "54±17.25"}]}
